Measurements reported in ChEMBL document CHEMBL4507268 (2021).

Columns and labels:
Settings in all cases: Compound concentration 1000.0 nM
[1] = target: Serine/threonine-protein kinase 38 (Homo sapiens) (UniProt Q15208)
[2] = system: Mast/stem cell growth factor receptor Kit (Homo sapiens), P10721 [A829P]
[3] = target: Mitogen-activated protein kinase kinase kinase kinase 5 (Homo sapiens) (UniProt Q9Y4K4)
[4] = target: MAP kinase-interacting serine/threonine-protein kinase 1 (Homo sapiens) (UniProt Q9BUB5)
[5] = target: Death-associated protein kinase 3 (Homo sapiens) (UniProt O43293)
[6] = target: T1, Serine/threonine-protein kinase Sgk3 (Homo sapiens) (UniProt Q96BR1)
T1 sequence (whole entry): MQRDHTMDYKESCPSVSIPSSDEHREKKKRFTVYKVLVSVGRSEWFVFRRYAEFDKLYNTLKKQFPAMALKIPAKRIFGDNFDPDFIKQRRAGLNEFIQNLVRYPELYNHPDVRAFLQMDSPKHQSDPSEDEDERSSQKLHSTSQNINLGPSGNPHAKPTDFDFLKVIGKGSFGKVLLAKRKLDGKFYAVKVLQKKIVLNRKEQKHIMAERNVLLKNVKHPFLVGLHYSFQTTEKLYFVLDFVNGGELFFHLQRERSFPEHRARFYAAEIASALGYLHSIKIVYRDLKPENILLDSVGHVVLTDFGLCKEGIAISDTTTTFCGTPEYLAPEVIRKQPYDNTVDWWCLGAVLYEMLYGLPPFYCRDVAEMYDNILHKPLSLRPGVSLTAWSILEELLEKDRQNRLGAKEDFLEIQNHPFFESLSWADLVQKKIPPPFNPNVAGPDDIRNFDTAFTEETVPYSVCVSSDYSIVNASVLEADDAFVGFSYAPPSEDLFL

[7] = target: Casein kinase I isoform epsilon (Homo sapiens) (UniProt P49674)
[8] = target: T2, cGMP-dependent protein kinase 1 (Homo sapiens) (UniProt Q13976)
T2 sequence (whole entry): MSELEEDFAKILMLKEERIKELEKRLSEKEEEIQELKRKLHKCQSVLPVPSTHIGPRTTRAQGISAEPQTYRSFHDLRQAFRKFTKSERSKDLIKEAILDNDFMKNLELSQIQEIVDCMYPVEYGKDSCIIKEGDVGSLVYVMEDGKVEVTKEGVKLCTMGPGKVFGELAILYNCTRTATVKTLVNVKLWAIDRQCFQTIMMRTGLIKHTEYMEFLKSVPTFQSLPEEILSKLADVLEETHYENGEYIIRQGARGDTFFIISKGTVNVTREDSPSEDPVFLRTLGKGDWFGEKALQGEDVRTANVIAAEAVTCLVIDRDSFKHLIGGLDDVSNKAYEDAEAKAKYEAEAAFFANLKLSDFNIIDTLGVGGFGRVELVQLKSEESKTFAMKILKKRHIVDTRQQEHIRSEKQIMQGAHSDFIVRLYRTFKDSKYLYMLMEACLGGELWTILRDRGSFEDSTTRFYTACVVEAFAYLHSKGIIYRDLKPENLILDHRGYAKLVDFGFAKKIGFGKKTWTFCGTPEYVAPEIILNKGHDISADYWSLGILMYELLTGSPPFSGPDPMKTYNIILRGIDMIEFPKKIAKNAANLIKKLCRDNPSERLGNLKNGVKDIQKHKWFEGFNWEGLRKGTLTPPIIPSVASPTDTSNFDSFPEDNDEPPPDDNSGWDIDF

[9] = target: Cyclin-dependent kinase 17 (Homo sapiens) (UniProt Q00537)
[10] = target: T3, Tyrosine-protein kinase Mer (Homo sapiens) (UniProt Q12866)
T3 sequence (whole entry): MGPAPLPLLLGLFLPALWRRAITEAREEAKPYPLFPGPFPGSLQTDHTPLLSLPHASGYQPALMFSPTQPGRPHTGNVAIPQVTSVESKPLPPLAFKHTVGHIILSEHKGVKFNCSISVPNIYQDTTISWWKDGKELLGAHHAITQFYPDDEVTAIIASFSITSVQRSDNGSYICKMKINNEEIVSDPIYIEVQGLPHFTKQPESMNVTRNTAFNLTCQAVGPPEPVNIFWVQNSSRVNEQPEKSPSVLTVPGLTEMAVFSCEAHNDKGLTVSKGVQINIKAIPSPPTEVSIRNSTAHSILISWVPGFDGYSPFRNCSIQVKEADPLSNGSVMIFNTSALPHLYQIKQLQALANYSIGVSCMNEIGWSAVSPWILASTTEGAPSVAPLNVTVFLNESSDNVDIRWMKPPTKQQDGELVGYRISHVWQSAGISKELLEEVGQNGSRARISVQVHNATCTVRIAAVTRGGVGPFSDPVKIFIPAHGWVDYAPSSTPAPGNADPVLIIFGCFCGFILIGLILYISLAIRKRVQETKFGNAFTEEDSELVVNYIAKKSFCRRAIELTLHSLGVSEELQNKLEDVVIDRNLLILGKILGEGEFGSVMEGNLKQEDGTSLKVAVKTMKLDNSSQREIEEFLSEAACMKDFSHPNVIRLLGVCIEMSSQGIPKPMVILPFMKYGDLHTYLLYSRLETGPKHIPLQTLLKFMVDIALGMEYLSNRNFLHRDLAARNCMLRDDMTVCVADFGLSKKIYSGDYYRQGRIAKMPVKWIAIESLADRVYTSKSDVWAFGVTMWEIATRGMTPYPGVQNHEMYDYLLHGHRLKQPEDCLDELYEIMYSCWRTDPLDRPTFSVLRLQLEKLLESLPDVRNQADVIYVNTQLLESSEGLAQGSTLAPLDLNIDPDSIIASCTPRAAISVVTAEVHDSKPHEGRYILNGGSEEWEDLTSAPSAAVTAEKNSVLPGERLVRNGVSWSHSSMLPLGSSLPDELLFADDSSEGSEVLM

[11] = target: Phosphatidylinositol 5-phosphate 4-kinase type-2 beta (Homo sapiens) (UniProt P78356)

Measured: residual activity

Sequence of Mast/stem cell growth factor receptor Kit (Homo sapiens), P10721 [A829P] (P10721 whole entry A829P): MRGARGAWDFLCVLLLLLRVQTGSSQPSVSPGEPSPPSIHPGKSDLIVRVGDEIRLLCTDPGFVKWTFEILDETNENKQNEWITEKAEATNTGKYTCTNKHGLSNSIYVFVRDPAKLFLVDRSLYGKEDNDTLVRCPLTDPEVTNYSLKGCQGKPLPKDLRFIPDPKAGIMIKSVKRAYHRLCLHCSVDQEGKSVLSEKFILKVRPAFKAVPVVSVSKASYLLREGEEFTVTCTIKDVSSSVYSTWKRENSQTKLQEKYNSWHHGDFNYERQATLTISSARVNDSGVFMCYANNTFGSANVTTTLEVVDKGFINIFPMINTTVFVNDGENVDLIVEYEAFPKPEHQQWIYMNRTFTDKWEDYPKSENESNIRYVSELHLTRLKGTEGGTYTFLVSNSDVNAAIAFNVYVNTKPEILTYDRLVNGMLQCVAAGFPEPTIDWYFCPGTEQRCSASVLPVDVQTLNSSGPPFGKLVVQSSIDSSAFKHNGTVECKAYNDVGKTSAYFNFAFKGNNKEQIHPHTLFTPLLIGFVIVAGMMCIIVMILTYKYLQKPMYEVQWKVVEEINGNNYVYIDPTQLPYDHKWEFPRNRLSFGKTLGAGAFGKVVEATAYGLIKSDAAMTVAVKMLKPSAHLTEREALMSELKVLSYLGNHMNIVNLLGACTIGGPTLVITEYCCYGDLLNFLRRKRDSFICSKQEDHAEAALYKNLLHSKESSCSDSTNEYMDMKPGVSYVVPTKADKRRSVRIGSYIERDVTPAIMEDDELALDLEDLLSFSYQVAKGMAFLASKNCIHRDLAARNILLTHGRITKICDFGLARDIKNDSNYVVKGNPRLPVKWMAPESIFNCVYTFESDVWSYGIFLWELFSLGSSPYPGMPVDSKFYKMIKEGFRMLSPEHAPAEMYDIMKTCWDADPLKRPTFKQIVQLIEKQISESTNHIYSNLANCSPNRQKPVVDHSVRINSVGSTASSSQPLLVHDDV
Sequence of Mitogen-activated protein kinase kinase kinase kinase 5 (Homo sapiens) (Q9Y4K4 whole entry, looked up): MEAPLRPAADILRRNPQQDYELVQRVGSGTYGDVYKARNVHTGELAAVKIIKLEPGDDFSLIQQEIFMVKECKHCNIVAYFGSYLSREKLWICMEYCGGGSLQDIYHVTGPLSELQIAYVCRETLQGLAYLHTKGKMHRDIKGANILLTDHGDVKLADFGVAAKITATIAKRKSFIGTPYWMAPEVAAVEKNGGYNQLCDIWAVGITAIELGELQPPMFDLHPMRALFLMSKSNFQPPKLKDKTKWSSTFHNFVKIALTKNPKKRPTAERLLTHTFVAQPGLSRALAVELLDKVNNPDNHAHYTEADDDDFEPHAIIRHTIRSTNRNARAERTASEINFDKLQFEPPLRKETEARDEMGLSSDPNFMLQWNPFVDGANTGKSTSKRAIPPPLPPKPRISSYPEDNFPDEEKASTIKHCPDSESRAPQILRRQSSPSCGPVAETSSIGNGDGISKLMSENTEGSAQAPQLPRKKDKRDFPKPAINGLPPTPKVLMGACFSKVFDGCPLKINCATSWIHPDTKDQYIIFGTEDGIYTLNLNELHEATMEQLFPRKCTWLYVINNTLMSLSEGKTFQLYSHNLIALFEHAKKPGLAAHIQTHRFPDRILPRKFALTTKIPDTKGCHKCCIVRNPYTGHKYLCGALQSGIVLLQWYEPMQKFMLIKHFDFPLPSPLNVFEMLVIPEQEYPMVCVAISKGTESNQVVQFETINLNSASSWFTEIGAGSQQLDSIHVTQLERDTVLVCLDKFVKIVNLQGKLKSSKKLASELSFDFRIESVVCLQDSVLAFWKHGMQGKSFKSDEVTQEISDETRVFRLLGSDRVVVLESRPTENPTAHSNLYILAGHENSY
Sequence of Death-associated protein kinase 3 (Homo sapiens) (O43293 whole entry, looked up): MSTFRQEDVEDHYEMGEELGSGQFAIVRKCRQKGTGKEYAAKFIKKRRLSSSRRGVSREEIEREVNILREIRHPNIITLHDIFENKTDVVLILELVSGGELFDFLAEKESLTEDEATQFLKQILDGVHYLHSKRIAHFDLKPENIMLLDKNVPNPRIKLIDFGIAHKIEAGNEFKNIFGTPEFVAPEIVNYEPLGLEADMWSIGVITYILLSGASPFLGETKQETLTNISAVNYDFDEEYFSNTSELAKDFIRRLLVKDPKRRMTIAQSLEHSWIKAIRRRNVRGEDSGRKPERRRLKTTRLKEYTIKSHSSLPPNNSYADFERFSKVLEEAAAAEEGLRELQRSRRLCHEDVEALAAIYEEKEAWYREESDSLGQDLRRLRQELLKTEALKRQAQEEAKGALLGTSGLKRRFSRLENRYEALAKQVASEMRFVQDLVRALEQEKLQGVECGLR
Sequence of Cyclin-dependent kinase 17 (Homo sapiens) (Q00537 whole entry, looked up): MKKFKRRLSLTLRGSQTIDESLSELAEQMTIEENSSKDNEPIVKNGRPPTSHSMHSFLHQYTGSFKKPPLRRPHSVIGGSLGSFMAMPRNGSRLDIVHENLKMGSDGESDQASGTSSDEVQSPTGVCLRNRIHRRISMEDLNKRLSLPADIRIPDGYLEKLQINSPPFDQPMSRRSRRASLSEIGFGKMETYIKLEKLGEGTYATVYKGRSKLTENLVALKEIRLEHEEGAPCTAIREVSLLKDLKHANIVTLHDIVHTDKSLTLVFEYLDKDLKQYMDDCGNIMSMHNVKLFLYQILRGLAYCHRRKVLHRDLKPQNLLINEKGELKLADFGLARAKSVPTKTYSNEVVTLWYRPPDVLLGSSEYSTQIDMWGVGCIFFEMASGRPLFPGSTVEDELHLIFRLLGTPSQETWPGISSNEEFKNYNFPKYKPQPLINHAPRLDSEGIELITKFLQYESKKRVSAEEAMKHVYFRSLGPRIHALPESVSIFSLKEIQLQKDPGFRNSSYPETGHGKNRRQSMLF
Sequence of MAP kinase-interacting serine/threonine-protein kinase 1 (Homo sapiens) (Q9BUB5 whole entry, looked up): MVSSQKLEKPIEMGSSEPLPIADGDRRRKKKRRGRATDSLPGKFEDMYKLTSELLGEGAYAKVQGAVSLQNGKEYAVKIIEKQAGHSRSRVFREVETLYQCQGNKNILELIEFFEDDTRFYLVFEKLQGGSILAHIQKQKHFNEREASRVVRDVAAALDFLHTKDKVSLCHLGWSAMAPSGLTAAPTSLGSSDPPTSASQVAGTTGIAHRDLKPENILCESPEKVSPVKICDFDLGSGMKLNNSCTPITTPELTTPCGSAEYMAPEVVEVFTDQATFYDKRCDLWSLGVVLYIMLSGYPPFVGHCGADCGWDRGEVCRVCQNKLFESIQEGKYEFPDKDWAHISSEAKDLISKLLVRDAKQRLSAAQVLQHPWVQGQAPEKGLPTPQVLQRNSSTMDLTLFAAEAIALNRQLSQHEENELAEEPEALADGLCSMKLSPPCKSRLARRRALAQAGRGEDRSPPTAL
Sequence of Casein kinase I isoform epsilon (Homo sapiens) (P49674 whole entry, looked up, canonical isoform): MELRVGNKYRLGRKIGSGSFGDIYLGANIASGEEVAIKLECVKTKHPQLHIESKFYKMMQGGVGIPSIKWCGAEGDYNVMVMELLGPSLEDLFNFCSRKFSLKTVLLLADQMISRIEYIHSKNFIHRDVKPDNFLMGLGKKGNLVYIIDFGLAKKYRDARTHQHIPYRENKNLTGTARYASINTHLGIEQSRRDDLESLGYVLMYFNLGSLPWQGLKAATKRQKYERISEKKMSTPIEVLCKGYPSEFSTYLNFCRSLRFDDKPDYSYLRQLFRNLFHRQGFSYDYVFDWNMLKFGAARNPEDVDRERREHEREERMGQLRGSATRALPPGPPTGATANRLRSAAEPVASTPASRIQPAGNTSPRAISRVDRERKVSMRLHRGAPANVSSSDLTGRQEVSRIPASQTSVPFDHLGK
Sequence of Phosphatidylinositol 5-phosphate 4-kinase type-2 beta (Homo sapiens) (P78356 whole entry): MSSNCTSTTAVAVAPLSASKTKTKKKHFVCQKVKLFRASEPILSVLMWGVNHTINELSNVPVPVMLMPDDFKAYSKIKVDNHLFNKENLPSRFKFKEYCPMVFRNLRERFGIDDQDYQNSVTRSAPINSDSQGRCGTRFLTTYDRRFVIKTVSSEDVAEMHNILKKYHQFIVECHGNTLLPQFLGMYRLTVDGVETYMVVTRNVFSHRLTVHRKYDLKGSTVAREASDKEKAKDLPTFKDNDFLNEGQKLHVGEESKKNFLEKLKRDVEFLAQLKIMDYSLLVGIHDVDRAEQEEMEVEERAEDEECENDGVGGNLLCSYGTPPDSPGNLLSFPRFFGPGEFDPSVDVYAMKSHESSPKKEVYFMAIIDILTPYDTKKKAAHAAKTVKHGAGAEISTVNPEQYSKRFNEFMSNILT
Sequence of Serine/threonine-protein kinase 38 (Homo sapiens) (Q15208 2-465 limits assumed): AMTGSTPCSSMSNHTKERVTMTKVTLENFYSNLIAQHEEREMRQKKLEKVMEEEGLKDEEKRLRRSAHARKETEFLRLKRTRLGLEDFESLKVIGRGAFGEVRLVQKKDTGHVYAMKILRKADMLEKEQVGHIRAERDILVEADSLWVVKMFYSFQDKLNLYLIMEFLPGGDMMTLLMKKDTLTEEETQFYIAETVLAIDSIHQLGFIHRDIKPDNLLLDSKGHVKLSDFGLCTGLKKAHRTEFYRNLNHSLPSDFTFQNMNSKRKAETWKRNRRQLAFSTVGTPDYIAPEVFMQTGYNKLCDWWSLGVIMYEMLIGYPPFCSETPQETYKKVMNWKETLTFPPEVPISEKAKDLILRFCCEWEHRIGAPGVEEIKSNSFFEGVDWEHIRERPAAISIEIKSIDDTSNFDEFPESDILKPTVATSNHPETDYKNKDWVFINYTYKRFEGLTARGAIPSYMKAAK

Cc1nc(C2CCN(C(=O)c3ccc(OC(F)(F)F)cc3N)CC2)c2ncc(N3CCN(C)CC3)cc2n1 [BAY-693]
inactive: [1] 94% | [2] 86% | [3] 100% | [4] 100% | [5] 100% | [6] 93% | [7] 100% | [8] 100% | [9] 88% | [10] 87% | [11] 78%

CN1CCN(c2cnc3c(C4CCN(C(=O)c5ccc(OC(F)(F)F)cc5N)CC4)ncnc3c2)CC1 [BAY-885]
inactive: [1] 80% | [2] 100% | [3] 99% | [4] 100% | [5] 91% | [6] 100% | [7] 100% | [8] 83% | [9] 93% | [10] 75% | [11] 79%
